Measurements: US7763641B2, “Broadspectrum heterocyclic substituted phenyl containing sulfonamide HIV protease inhibitors” (Tibotec Pharmaceuticals Ltd., priority 2001, dated 2010)
Where two headings read alike, the source gives them in different places.

What was measured:
HIV strain D = assay: Cellular anti-HIV assay, clinically isolated mutant strain D; format: cell-based; details: FR=EC50 (mutant strain)/EC50 (HIV-1 strain LAI)
Method: (§1) HIV- or mock-infected MT4 cells were incubated for five days in the presence of various concentrations of the inhibitor. […] Cell viability is measured by measuring the concentration of MTT, a yellow, water soluble tetrazolium dye that is converted to a purple, water insoluble formazan in the mitochondria of living cells only. Upon solubilization of the resulting formazan crystals with isopropanol, the absorbance of the solution is monitored at 540 nm. The values correlate directly to the number of living cells remaining in the culture at the completion of the five day incubation. The inhibitory activity of the compound was monitored on the virus-infected cells and was expressed as EC50 and EC90. These values represent the amount of the compound required to protect 50% and 90%, respectively, of the cells from the cytopathogenic effect of the virus. […] The selectivity index (SI) (ratio CC50/EC50) is an indication of the selectivity of the anti-HIV activity of the inhibitor. Wherever results are reported as e.g. pEC50 or pCC50 values, the result is expressed as the negative logarithm of the result expressed as EC50 or CC50 respectively.
(§2) Because of the increasing emergence of drug resistant HIV strains, the present compounds were tested for their potency against clinically isolated HIV strains harboring several mutations (Table 7 and 8).
(§3) As a measure of the broad spectrum activity of the present compounds, the fold resistance (FR), defined as FR=EC50 (mutant strain)/EC50 (HIV-1 strain LAI), was determined.

HIV strain C = assay: Cellular anti-HIV assay, clinically isolated mutant strain C; format: cell-based; details: FR=EC50 (mutant strain)/EC50 (HIV-1 strain LAI)
Method: as §1, §2, §3

HIV strain B = assay: Cellular anti-HIV assay, clinically isolated mutant strain B; format: cell-based; details: FR=EC50 (mutant strain)/EC50 (HIV-1 strain LAI)
Method: as §1, §2, §3

HIV strain F = assay: Cellular anti-HIV assay, clinically isolated mutant strain F; format: cell-based; details: FR=EC50 (mutant strain)/EC50 (HIV-1 strain LAI)
Method: as §1, §2, §3

HIV strain E = assay: Cellular anti-HIV assay, clinically isolated mutant strain E; format: cell-based; details: FR=EC50 (mutant strain)/EC50 (HIV-1 strain LAI)
Method: as §1, §2, §3

HIV strain A = assay: Cellular anti-HIV assay, clinically isolated mutant strain A; format: cell-based; details: FR=EC50 (mutant strain)/EC50 (HIV-1 strain LAI)
Method: as §1, §2, §3

mock-infected MT4 cells = assay: Toxicity on mock-infected cells (MTT)
Method: as §1, §3

HIV-1 strain LAI = assay: Cellular anti-HIV assay (MTT), wild type strain; format: cell-based; details: for pEC50: MT4 cells, five days, MTT, HIV-1 strain LAI, Tables 1-6; for WT (pEC50 against wild type HIV-LAI strain): Table 8
Method: The compounds of the present invention were examined for anti-viral activity in a cellular assay. […] The cellular assay was performed according to the following procedure.

[1] = pCC50 with mock transfected cells

Compound	D (FR towards mutant D) (HIV strain D)	C (FR towards mutant C) (HIV strain C)	B (FR towards mutant B) (HIV strain B)	F (FR towards mutant F) (HIV strain F)	E (FR towards mutant E) (HIV strain E)	A (FR value towards mutant A) (HIV strain A)	Tox (pCC50) (mock-infected MT4 cells)	pEC50 (HIV-1 strain LAI)	WT (pEC50 against wild type HIV-LAI strain) (HIV-1 strain LAI)	Tox (pCC50) (mock-infected MT4 cells; [1])
CC(C)CN(CC(O)C(Cc1ccccc1)NC(=O)OC1COC2OCCC12)S(=O)(=O)c1ccc(-c2csc(N)n2)cc1 (stereo not shown) [Compound 2]	9.3	3.0	10.0	91	8.9	26	4.07	8.5	8.5	
CC(=O)Nc1nc(-c2ccc(S(=O)(=O)N(CC(C)C)CC(O)C(Cc3ccccc3)NC(=O)OC3COC4OCCC34)cc2)cs1 (stereo not shown) [Compound 3]	26	7.4	8.9	151	17	39		8.3	8.3	4.11
CC(C)CN(CC(O)C(Cc1ccccc1)NC(=O)OC1COC2OCCC12)S(=O)(=O)c1ccc(-c2csc(NCCCN(C)C)n2)cc1 (stereo not shown) [Compound 6]	3.8	1.2	4.7	79	6.6	6.2	4.69	7.5	7.5	
CC(=O)Nc1nc(-c2ccc(S(=O)(=O)N(CC(C)C)CC(O)C(Cc3ccccc3)NC(=O)OC3COC4OCCC34)cc2)c[nH]1 (stereo not shown) [Compound 32]		0.33	1.0	7.2	0.95	1.3		7.7	7.7	<4.0
CC(C)CN(CC(O)C(Cc1ccccc1)NC(=O)OC1COC2OCCC12)S(=O)(=O)c1ccc(-c2c[nH]c(NC(=O)OC3COC4OCCC34)n2)cc1 (stereo not shown) [Compound 33]		0.2	0.66	2.6	0.19	0.71		6.7	6.7	<4.0
Cc1nc(-c2ccc(S(=O)(=O)N(CC(C)C)CC(O)C(Cc3ccccc3)NC(=O)OC3COC4OCCC34)cc2)co1 (stereo not shown) [Compound 35]	6.2	8.3	10.5	42	8.3	11	<4.0	8.4	8.4	
CC(C)CN(C[C@@H](O)[C@H](Cc1ccccc1)NC(=O)O[C@H]1CO[C@H]2OCC[C@H]21)S(=O)(=O)c1ccc(-c2noc(-c3ccco3)n2)cc1 [Compound 38, [(1S,2R)-3-[N-[4-(5-(furan-2-yl)oxadiazol-3-yl)phenylsulfonyl]-N-(2-methylpropyl)amino]-2-hydroxy-1-(phenylmethyl)propyl]carbamic acid, [(3R,3aS,6aR)-hexahydrofuro[2,3-b]furan-3-yl]ester]	14.8	6.8	23	44.7	9.5	30		8.4	8.4	<4.49
CCCc1nc(-c2ccc(S(=O)(=O)N(CC(C)C)CC(O)C(Cc3ccccc3)NC(=O)OC3COC4OCCC34)cc2)co1 (stereo not shown) [Compound 40]	12.9	4.1		219	41	5.0	<4.49	8.5	8.5	
CC(C)CN(CC(O)C(Cc1ccccc1)NC(=O)OC1COC2OCCC12)S(=O)(=O)c1ccc(-c2coc(-c3ccc([N+](=O)[O-])cc3)n2)cc1 (stereo not shown) [Compound 43]	10.2	9.1	23		6.6	54		7.9	7.9	<4.0
COc1cccc(-c2nc(-c3ccc(S(=O)(=O)N(CC(C)C)CC(O)C(Cc4ccccc4)NC(=O)OC4COC5OCCC45)cc3)co2)c1 (stereo not shown) [Compound 44]	15	8.1	14	77	13	39		8.0	8.0	<4.49
Cc1cc(-c2nc(-c3ccc(S(=O)(=O)N(CC(C)C)CC(O)C(Cc4ccccc4)NC(=O)OC4COC5OCCC45)cc3)co2)no1 (stereo not shown) [Compound 46]	32	9.1	32		9.8	182	<4.49	8.4	8.4	
CC(=O)OC(c1ccccc1)c1nc(-c2ccc(S(=O)(=O)N(CC(C)C)CC(O)C(Cc3ccccc3)NC(=O)OC3COC4OCCC34)cc2)co1 (stereo not shown) [Compound 48]	17	5.8	25		6.9	89	<4.0	8.3	8.3	
CC(C)CN(CC(O)C(Cc1ccccc1)NC(=O)OC1COC2OCCC12)S(=O)(=O)c1ccc(-c2coc(-c3ccc(C#N)cc3)n2)cc1 (stereo not shown) [Compound 52]	16	6.2	17		11		<4.49	8.1	8.1	
[(1S,2R)-2-hydroxy-3-[N-[4-(2-methylaminothiazol-4-yl)phenylsulfonyl]-N-(2-methylpropyl)amino]-1-(phenylmethyl)propyl]carbamic acid, [(3R,3aS,6aR)-hexahydrofuro[2,3-b]furan-3-yl]ester [Compound 1]	7.9	1.2	2.1	42	5.0	5.4		8.5	8.5	4.19
